The values that follow come from ChEMBL document CHEMBL4507265 (2021).

The target in assay [1] is Alpha-2B adrenergic receptor (Homo sapiens, UniProt P18089). Put plainly: GPCRScan assay: inhibition of Alpha2B. Set-up: radioligand conc. used [nm] 1.5 – 2.0, parental cells HEKT.
Assay [2] deals with T1, Alpha-1D adrenergic receptor (Homo sapiens) (UniProt P25100).
T1 sequence (whole entry): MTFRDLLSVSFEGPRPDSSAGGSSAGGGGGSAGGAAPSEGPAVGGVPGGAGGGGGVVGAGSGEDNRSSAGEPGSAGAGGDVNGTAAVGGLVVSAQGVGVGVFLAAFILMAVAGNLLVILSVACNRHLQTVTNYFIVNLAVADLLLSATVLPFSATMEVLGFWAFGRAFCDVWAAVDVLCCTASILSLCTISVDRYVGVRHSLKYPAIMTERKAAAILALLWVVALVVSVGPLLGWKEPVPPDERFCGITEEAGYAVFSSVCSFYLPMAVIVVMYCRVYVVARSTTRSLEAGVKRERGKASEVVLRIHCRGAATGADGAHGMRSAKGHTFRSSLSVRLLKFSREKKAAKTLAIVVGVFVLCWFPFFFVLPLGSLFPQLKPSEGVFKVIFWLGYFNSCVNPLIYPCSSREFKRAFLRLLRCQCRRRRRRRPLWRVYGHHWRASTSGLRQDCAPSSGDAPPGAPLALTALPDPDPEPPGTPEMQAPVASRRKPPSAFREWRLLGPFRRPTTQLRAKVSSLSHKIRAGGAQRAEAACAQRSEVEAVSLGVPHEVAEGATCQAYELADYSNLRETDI
Description: Inhibition of Adrenergic alpha1D at 10 µM in the Eurofins-Panlabs radioligand binding assay (Eurofins_assay_203400). The following applies: Compound concentration 10.0 uM.

For assay [3], the target named is Epidermal growth factor receptor (Homo sapiens) (UniProt P00533). Put plainly: Inhibition of Epidermal Growth Factor (EGF) at 10 µM in the Eurofins-Panlabs radioligand binding assay (Eurofins_assay_225510). The following applies: Compound concentration 10.0 uM.
Assay [4] has as its target Glutamate receptor ionotropic, kainate (Rattus norvegicus) (UniProt P22756+Q01812+P42260+P42264+Q63273). Put plainly: Inhibition of Glutamate, Kainate at 10 µM in the Eurofins-Panlabs radioligand binding assay (Eurofins_assay_232700). The settings on record: Compound concentration 10.0 uM.
Another assay is filed under the species Rattus norvegicus. Put plainly: Inhibition of Glutamate, NMDA, Phencyclidine at 10 µM in the Eurofins-Panlabs radioligand binding assay (Eurofins_assay_233000). Type of assay: protein-complex assay. The settings on record: Compound concentration 10.0 uM.
Assay [5] has as its target Sigma non-opioid intracellular receptor 1 (Homo sapiens) (UniProt Q99720). Description: Inhibition of Sigma 1 at 10 µM in the Eurofins-Panlabs radioligand binding assay (Eurofins_assay_278110). Set-up: ligand concentration 8 nM. The settings on record: Compound concentration 10.0 uM.
The target in assay [6] is Atypical kinase COQ8B, mitochondrial (Homo sapiens) (UniProt Q96D53). The settings on record: Compound concentration 1000.0 nM.
The target in assay [7] is Cyclin-dependent kinase 9 (Homo sapiens) (UniProt P50750). The following applies: Compound concentration 1000.0 nM.
For assay [8], the target named is Death-associated protein kinase 2 (Homo sapiens) (UniProt Q9UIK4). The settings on record: Compound concentration 1000.0 nM.
The test system of assay [9] is Receptor-type tyrosine-protein kinase FLT3 (Homo sapiens), P36888 [UNDEFINED MUTATION]. The following applies: Compound concentration 1000.0 nM.
The test system of assay [10] is Mast/stem cell growth factor receptor Kit (Homo sapiens), P10721 [V559D]. The following applies: Compound concentration 1000.0 nM.
The target of assay [11] is Mitogen-activated protein kinase kinase kinase 9 (Homo sapiens) (UniProt P80192). The following applies: Compound concentration 1000.0 nM.
Assay [12] concerns the target Serine/threonine-protein kinase 4 (Homo sapiens) (UniProt Q13043). The following applies: Compound concentration 1000.0 nM.
In assay [13] the target is Phosphatidylinositol 3-kinase C2 domain-containing subunit gamma (Homo sapiens) (UniProt O75747). The following applies: Compound concentration 1000.0 nM.
Assay [14] relates to Phosphatidylinositol 4,5-bisphosphate 3-kinase catalytic subunit alpha isoform (Homo sapiens), P42336 [E545A]. The following applies: Compound concentration 1000.0 nM.
Assay [15] has as its target Protein kinase C eta type (Homo sapiens) (UniProt P24723). The settings on record: Compound concentration 1000.0 nM.
The target of assay [16] is Tyrosine-protein kinase Srms (Homo sapiens) (UniProt Q9H3Y6). The settings on record: Compound concentration 1000.0 nM.
Assay [17] has as its target Tyrosine-protein kinase TXK (Homo sapiens) (UniProt P42681). The following applies: Compound concentration 1000.0 nM.
Assay [18] has as its target Adenosine receptor A3 (Homo sapiens) (UniProt P0DMS8). The following applies: Compound concentration 10.0 uM.
In assay [19] the target is T2, Alpha-2A adrenergic receptor (Homo sapiens) (UniProt P08913).
T2 sequence (whole entry): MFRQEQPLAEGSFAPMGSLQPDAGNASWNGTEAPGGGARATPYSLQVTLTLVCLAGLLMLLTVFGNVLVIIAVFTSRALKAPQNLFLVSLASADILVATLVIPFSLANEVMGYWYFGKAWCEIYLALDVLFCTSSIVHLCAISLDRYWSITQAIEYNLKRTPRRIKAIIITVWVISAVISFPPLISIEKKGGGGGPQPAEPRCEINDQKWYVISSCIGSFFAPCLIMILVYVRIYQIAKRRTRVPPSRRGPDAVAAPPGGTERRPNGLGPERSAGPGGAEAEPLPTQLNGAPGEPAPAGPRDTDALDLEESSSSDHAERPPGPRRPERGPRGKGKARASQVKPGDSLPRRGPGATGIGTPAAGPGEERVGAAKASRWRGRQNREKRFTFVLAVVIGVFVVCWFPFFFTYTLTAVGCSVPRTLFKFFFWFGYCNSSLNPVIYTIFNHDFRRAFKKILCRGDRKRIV
The settings on record: Compound concentration 10.0 uM.

Assay [20] deals with B2 bradykinin receptor (Homo sapiens) (UniProt P30411). The settings on record: Compound concentration 10.0 uM.
For assay [21], the target named is D(1A) dopamine receptor (Homo sapiens) (UniProt P21728). The settings on record: Compound concentration 10.0 uM.
Assay [22] concerns the target Histamine H3 receptor (Homo sapiens) (UniProt Q9Y5N1). The settings on record: Compound concentration 10.0 uM.

Sequence of Mast/stem cell growth factor receptor Kit (Homo sapiens), P10721 [V559D] (P10721 whole entry V559D): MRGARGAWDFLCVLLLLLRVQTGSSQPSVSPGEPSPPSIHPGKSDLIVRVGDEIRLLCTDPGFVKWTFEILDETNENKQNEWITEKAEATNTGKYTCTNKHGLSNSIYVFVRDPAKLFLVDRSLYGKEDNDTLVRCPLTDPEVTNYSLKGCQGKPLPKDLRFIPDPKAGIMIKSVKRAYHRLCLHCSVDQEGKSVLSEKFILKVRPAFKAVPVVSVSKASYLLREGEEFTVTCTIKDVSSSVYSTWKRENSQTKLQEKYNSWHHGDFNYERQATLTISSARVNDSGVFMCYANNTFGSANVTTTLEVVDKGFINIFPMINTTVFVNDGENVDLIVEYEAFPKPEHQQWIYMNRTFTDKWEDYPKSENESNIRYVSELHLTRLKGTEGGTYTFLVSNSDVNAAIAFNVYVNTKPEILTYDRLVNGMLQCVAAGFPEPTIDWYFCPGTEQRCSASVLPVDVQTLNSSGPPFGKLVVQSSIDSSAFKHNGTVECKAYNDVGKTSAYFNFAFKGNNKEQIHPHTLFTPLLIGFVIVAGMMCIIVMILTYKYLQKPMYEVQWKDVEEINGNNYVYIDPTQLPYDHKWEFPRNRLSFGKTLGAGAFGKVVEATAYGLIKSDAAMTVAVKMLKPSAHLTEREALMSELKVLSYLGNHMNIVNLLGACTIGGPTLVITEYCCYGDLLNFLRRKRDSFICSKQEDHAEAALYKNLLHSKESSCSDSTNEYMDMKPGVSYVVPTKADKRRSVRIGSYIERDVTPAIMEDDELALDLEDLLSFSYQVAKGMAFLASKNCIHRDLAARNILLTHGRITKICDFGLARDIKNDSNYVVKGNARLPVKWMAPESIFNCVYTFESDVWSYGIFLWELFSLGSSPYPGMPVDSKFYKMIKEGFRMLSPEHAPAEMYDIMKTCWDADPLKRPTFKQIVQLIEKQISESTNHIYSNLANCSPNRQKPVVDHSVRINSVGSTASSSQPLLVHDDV
Sequence of Phosphatidylinositol 3-kinase C2 domain-containing subunit gamma (Homo sapiens) (O75747 whole entry, the tested form may be a part, canonical isoform): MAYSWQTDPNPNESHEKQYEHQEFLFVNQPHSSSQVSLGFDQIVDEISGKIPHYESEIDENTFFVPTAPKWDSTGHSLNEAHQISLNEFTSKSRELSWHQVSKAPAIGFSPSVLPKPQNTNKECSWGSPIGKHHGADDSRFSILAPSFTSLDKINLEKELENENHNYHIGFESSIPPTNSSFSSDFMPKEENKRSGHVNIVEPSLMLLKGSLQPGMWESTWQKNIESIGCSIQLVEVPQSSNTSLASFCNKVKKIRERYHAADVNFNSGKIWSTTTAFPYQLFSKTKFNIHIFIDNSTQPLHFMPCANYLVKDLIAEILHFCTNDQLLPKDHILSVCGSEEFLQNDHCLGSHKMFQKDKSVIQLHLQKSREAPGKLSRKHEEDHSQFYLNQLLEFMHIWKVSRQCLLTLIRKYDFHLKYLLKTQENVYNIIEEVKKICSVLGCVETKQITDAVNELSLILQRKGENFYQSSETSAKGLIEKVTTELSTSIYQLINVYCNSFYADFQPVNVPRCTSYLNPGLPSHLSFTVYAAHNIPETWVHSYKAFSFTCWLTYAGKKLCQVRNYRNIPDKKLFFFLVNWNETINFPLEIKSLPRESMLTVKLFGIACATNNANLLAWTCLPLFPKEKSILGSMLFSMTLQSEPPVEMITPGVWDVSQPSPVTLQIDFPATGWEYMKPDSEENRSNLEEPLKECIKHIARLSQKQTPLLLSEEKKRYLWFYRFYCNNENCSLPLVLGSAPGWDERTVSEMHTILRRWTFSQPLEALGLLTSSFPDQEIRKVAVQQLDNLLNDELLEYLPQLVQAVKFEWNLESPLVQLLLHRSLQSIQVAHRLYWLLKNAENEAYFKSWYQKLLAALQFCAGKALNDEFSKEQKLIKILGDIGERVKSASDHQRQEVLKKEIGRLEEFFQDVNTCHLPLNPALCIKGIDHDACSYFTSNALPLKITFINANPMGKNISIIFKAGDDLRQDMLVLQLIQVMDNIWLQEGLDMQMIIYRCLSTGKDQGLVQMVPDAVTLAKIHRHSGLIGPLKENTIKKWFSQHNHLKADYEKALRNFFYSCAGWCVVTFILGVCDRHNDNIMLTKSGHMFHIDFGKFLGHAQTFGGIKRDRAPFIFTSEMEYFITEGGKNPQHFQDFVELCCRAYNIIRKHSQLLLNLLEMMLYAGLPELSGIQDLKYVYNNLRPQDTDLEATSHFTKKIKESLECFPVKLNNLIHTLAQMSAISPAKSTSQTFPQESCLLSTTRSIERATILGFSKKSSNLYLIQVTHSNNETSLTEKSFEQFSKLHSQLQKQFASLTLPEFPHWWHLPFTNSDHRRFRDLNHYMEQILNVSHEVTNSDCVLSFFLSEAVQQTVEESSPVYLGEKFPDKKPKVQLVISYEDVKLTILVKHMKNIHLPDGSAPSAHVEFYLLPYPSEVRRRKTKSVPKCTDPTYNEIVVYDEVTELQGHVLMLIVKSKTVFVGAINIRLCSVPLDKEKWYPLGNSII
Sequence of Protein kinase C eta type (Homo sapiens) (P24723 whole entry): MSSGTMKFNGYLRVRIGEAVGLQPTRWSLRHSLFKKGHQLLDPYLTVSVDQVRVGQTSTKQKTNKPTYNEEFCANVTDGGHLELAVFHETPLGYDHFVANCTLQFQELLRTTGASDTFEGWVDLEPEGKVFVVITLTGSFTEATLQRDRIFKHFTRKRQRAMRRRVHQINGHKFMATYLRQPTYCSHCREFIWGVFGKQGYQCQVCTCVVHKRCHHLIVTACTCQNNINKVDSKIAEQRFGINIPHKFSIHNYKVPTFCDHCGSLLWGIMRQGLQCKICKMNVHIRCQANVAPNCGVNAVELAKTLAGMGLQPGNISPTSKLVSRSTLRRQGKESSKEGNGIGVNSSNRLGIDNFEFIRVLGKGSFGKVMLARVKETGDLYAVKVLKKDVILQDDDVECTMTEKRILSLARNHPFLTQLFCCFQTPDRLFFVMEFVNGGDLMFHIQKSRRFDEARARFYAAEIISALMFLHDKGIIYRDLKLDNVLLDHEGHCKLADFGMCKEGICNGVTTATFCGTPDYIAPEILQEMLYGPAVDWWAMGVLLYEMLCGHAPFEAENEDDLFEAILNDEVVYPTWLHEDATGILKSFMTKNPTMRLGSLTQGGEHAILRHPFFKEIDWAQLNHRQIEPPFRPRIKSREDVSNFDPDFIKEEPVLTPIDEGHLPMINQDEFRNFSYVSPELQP
Sequence of Receptor-type tyrosine-protein kinase FLT3 (Homo sapiens), P36888 [UNDEFINED MUTATION] (P36888 whole entry, looked up, stated change not applied): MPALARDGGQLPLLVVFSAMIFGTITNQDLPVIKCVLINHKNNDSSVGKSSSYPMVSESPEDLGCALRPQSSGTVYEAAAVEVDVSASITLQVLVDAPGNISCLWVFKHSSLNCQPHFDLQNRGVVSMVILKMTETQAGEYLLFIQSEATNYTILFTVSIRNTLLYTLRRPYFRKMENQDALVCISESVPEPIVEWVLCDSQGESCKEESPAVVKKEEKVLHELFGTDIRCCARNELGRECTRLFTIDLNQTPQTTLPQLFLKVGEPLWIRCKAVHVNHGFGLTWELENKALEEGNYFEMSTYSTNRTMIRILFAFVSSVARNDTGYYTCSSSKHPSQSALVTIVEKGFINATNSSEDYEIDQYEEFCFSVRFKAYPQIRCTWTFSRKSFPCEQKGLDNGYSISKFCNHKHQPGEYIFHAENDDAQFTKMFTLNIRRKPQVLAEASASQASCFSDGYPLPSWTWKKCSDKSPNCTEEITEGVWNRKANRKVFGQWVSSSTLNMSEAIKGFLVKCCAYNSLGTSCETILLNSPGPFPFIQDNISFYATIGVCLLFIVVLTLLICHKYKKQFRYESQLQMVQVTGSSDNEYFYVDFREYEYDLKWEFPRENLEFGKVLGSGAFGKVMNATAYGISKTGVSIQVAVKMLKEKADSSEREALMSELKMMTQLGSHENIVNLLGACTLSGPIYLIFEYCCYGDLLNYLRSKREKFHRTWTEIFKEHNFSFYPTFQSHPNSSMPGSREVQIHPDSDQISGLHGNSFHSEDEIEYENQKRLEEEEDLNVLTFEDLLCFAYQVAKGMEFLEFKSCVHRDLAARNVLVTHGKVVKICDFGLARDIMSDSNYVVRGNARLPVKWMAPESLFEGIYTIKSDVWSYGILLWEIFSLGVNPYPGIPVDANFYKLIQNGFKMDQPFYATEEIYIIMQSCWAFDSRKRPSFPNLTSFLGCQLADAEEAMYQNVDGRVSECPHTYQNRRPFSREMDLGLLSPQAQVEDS
Sequence of Serine/threonine-protein kinase 4 (Homo sapiens) (Q13043 whole entry, the tested form may be a part): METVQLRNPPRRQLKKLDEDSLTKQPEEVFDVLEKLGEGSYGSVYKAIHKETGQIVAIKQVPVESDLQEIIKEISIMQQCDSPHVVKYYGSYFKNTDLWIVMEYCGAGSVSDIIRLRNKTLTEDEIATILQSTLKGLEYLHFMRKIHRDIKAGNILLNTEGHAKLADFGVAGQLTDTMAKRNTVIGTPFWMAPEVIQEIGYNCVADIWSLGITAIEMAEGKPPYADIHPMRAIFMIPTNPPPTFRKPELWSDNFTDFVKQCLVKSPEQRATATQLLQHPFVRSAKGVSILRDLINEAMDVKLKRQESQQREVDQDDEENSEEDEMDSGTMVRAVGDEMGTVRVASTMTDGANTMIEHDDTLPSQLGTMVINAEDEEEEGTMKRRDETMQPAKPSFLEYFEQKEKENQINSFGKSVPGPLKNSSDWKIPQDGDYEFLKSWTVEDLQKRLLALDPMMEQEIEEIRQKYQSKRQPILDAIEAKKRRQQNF
Sequence of Cyclin-dependent kinase 9 (Homo sapiens) (P50750 whole entry): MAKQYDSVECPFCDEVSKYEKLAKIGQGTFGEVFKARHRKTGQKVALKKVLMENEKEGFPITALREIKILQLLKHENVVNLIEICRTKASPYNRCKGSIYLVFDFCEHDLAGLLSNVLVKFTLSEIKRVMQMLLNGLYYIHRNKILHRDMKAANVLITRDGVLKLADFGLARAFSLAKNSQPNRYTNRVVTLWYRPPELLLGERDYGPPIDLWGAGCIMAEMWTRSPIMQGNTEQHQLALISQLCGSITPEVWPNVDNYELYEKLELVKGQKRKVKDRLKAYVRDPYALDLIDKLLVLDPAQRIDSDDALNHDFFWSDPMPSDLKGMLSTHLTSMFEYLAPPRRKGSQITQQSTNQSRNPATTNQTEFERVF

Usually inhibition stands for the change of the read-out against control, counted positive when it falls. Turning to `NS(=O)(=O)c1cc(NC(=O)Cc2ccccc2)ccc1Oc1cccc(Cl)c1` [BAY-1797], the Ki in assay [1] (read-out: Ki) is 4.29 µM; in [1] (read-out: pKi (converted)), 4.32 µM. Also, the inhibition in [2] is 5%; in [3], 2%; in [4] it was 3%; in the assay filed under Rattus norvegicus it was -1%; in assay [5], 3%; in assay [18] it was 47%. Further, the inhibition in assay [19] was 26%; in [20], 10%; in assay [21] it was 11%. Further, the residual activity in [6] is 100%; in assay [7], 92%; in assay [8], 90%; in [9], 79%; in assay [10], 81%; in [11] it was 100%. Further, the residual activity in [12] is 86%; in assay [13], 72%; in [14], 69%; in assay [15], 93%; in assay [16] it was 78%; in assay [17], 92%.
For `NS(=O)(=O)c1cc(NC(=O)C2(c3ccccc3Cl)CC2)ccc1Oc1cccc(Cl)c1` [BAY-207], the residual activity in assay [6] was 63%; in [7], 78%; in assay [8], 100%; in assay [9] it was 100%; in [10], 79%; in assay [11], 67%. Further, the residual activity in assay [12] was 73%; in assay [13], 100%; in assay [14], 82%; in assay [15], 100%; in assay [16], 77%; in assay [17], 90%. Moreover, the inhibition in [22] is 3.87%.
